From ChEMBL document CHEMBL1201862, “PubChem BioAssay data set” (2004)
Activity calls are given as the source filed them.

What was measured:
[1] = molecular target: T1, High affinity choline transporter 1 (Homo sapiens, UniProt Q9GZV3); test: CHT inhibitors, dose response, cell-based, 5-point CRC, membrane potential dye (AID 504840); format: functional
T1 sequence (Q9GZV3 whole entry): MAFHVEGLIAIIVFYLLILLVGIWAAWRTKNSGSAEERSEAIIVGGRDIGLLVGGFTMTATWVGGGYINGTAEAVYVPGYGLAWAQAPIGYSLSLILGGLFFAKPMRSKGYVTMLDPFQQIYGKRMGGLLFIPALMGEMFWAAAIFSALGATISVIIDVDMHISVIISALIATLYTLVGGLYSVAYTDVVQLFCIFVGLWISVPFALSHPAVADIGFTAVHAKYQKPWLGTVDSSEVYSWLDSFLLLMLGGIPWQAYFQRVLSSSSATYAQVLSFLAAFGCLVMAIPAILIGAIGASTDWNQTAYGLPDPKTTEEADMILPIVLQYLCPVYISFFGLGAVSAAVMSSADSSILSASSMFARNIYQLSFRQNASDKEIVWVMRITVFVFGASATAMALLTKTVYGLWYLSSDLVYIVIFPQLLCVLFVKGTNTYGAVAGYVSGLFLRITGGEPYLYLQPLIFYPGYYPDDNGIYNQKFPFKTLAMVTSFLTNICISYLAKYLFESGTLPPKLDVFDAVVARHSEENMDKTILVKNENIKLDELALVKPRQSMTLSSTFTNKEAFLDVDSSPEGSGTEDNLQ

[2] = Shn3 3'UTR reporter inhibitors, dose response, cell-based, Clone20 osteoblasts, firefly luciferase, cherry-picked (AID 624132); format: functional;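 also: firefly luciferase luminescence from reporter carrying the Shn3 3'UTR in osteoblasts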
[3] = HepG2 cell cytotoxicity, dose response, cytotoxicity control for Shn3 inhibitor project, CellTiter-Glo, cherry-picked (AID 624134); format: functional, cell-based
[4] = control 3'UTR Renilla luciferase suppression, dose response, counter-screen for Shn3 inhibitor project, cell-based, Clone20-Shn3RL, cherry-picked (AID 624133); format: functional
SN12K1 = test: cells; format: functional; conditions: Homo sapiens
P388 = test: cells; format: functional; conditions: Mus musculus
P388/ADR = test: cells; format: functional; conditions: Mus musculus
[5] = molecular target: T2, Ubiquitin-conjugating enzyme E2 N (Homo sapiens, UniProt P61088); format: functional;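 also: Dose-response confirmation in a TR-FRET assay detecting UBC13-driven polyubiquitin chain formation, inhibition measured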
T2 sequence (P61088 whole entry): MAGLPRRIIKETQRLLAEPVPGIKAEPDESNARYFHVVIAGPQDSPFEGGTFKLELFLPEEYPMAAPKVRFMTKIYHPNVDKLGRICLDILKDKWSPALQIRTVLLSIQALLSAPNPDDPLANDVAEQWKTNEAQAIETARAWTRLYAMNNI

[6] = molecular target: T3, Corticotropin-releasing factor receptor 2/Corticotropin-releasing factor-binding protein (Homo sapiens, UniProt P24387+Q13324); test: activators of CRF receptor 2 with binding protein – uHTS hits, confirmation (AID 602473); format: functional; conditions: read-out: EC50_Mean
T3 sequence (Q13324 whole entry): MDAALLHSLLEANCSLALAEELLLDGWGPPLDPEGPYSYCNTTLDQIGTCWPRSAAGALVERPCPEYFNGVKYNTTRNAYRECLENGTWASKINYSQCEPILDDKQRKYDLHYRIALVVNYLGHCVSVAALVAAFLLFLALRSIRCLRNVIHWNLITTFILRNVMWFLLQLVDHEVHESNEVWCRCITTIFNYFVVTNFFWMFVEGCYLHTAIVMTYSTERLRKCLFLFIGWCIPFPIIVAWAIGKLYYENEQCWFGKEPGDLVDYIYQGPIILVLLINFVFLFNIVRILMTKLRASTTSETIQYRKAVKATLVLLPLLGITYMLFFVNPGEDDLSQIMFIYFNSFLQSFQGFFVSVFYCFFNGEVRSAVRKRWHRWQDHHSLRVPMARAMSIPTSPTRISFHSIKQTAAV
T3 sequence (P24387 whole entry): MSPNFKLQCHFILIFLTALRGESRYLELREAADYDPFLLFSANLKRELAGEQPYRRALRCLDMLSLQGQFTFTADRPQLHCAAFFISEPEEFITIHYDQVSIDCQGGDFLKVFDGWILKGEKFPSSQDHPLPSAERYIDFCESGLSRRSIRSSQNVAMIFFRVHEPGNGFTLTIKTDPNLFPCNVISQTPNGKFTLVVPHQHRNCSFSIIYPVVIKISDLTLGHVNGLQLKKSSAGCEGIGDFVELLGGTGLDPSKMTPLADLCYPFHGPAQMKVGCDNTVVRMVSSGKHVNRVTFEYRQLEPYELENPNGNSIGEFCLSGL

[7] = molecular target: FAD-linked sulfhydryl oxidase ALR (Homo sapiens, UniProt P55789); test: inhibitors of human ALR sulfhydryl oxidase, dose response, biochemical, H2O2 detection, luminescence, cherry-pick (AID 493248)
FAD-linked sulfhydryl oxidase ALR, sequence (P55789 whole entry): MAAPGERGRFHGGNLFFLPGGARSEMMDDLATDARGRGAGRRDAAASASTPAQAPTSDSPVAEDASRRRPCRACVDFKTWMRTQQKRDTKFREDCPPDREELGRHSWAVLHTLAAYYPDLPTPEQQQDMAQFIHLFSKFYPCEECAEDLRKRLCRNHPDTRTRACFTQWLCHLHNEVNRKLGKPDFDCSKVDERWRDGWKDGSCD

[8] = molecular target: T4, Heat shock factor protein 1 (Mus musculus, UniProt P38532); test: inhibition of MG132-induced HSE-luciferase signal, confirmation, cell-based, NIH3T3, luminescence, dose retest (AID 2382); format: functional;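 also: NIH3T3 fibroblasts with HSF1-driven luciferase reporter stressed by proteasome inhibitor MG132; luminescence from HSF1-driven luciferase expression after 8 hours of MG132 stress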
T4 sequence (P38532 whole entry): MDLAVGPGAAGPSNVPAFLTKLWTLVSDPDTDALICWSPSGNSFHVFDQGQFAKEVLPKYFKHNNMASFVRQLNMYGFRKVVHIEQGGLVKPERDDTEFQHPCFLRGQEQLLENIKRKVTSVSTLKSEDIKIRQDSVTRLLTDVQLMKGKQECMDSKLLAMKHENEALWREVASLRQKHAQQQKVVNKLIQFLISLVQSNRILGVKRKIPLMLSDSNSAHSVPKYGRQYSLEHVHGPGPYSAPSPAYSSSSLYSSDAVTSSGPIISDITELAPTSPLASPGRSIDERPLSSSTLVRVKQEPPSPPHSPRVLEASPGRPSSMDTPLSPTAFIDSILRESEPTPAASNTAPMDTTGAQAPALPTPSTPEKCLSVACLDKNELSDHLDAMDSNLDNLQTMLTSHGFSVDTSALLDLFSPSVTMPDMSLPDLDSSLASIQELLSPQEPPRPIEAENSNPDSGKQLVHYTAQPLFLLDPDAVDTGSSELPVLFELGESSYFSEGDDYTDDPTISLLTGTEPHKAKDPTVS

[9] = molecular target: T5, Calpain-2 catalytic subunit (Sus scrofa, UniProt P43367); test: pig calpain II inhibitor potency, dose response, biochemical, fluorogenic peptide substrate (AID 1420); format: functional
T5 sequence (P43367 whole entry): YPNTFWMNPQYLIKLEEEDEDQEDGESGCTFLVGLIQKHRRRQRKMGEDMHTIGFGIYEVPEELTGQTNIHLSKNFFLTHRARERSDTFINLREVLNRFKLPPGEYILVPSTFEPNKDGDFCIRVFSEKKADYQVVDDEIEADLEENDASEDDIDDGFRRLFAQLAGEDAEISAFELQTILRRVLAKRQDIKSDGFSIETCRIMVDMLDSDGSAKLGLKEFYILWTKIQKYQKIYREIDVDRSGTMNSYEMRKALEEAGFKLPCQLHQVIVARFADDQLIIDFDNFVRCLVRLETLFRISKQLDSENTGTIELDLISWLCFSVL

INS1 = test: beta cell apoptosis inhibitors, cytokine rescue, dose response, luminescence, retest (AID 449756); format: functional, cell-based; conditions: Rattus norvegicus;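 also: cell death triggered by IL-1 beta plus TNF-alpha plus IFN-gamma mixture; protective hits raise ATP signal compared with cytokine alone wells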
[10] = test system: Streptococcus sp. 'group A'; test: growth inhibition of control SK(-) GAS strain, dose response, counter-screen for streptokinase expression inhibitor project, luminescence, kanamycin, BacTiterGlo, confirmation (AID 1900); format: functional, organism-based
Streptococcus = test: Group A Streptococcus viability loss, dose response, counter-screen for streptokinase expression inhibitor project, luminescence, BacTiterGlo (AID 1915); format: functional, organism-based;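 also: potency for reduction of bacterial viability or growth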
[11] = inhibitors of intracellular T. cruzi replication, confirmation, NIH3T3 host cells, beta-gal luminescence (AID 2044); format: functional, cell-based;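 also: intracellular parasites grown in NIH/3T3 mouse fibroblasts as host cells; luminescent beta-galactosidase reporter signal from transgenic T. cruzi replicating inside host cells; inhibitors lower the luminescence signal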
[12] = cytotoxicity toward NIH3T3 fibroblasts, dose response, counter-screen, cell-based, ATP luminescence, mouse fibroblasts (AID 2010); format: functional;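 also: cells exposed to compound for about 90 hours before reading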
[13] = microbe, parasite or virus in culture; format: functional; conditions: Mycobacterium tuberculosis

Cc1ccccc1N(C)S(=O)(=O)c1ccc2ncc(C(=O)NCC3CCCO3)c(O)c2c1 (configuration not stated)
IC50 [1]: 12 µM (active)

CC1CC(C)(C)CC2(C1)NC(=O)N(CC(=O)N1CCN(Cc3ccc(C#N)cc3)CC1)C2=O (configuration not stated)
AC50 [2]: 1.47 µM (active) | AC50 [3]: 2.54 µM (active) | AC50 [4]: 0.65 µM (active)

O=C1C2=C(C3=NCCc4c[nH]c1c43)C1(C=C(Br)C(O)C(Br)=C1)CCN2 (configuration not stated)
GI50 (SN12K1): 2.99 µM (inactive) | GI50 (P388): 1.25 µM (inactive) | GI50 (P388/ADR): 1.81 µM (inactive)

CCCCC(=O)NC(=S)NNC(=O)c1ccc(OC)cc1
IC50 [5]: > 20 µM (inactive) | EC50 [6]: 5.06 µM (active)

CNC(=O)SCC(NC(=O)CCC(N)C(=O)O)C(=O)NCC(=O)O (configuration not stated)
GI50 (SN12K1): > 59.2 µM (inactive) | GI50 (P388): 27.5 µM (inactive) | GI50 (P388/ADR): 26.4 µM (inactive)

CC1[C@@]2(CCC(C)(C)O2)O[C@@H]2C=C3C4CCC5Cc6nc7c(nc6C[C@@]5(C)C4C[C@H](O)[C@@]3(C)[C@]12O)CC1CCC2C3=C[C@H]4O[C@@]5(O[C@@](C)(CO)C[C@@H]5O)C(C)[C@@]4(O)[C@]3(C)[C@@H](O)CC2[C@]1(C)C7 (some centres not stated)
GI50 (SN12K1): 0.000365 µM (active) | GI50 (P388): 0.000365 µM (active) | GI50 (P388/ADR): 0.00112 µM (active)

Cc1ccc(Cn2c(N/N=C/c3ccncc3)nc3c2c(=O)n(C)c(=O)n3C)cc1
AC50 [7]: 1.77 µM (active)

CC(C)Sc1sc(C(=O)O)c(-c2ccc(Cl)cc2)c1C#N
IC50 [1]: 13.5 µM (active)

CNC(SCc1cc2c(cc1Cl)OCO2)=C1C(=O)N(C)C(=O)N(C)C1=O
EC50 [8]: > 195 µM (not active) | AC50 [7]: 1.56 µM (active)

Cc1c(C(=O)c2ccc(N(C)C)cc2)c2ccccn2c1CCC#N
AC50 [7]: 2.73 µM (active) | IC50 [9]: > 50 µM (not active)

CN1CCCN(c2ncnc3scc(-c4ccc(F)cc4)c23)CC1
IC50 [1]: 12.9 µM (active)

COc1ccc(C2/C=C\CN(C(=O)c3ccccc3)[C@H](Cc3ccccc3)C(=O)N2Cc2ccc(F)cc2)cc1 (some centres not stated)
AC50 (INS1): 7.46 µM (active)

OCC1CCC(n2cnc3c(O)ncnc32)O1 (configuration not stated)
GI50 (SN12K1): > 100 µM (inactive) | GI50 (P388): > 100 µM (inactive) | GI50 (P388/ADR): > 100 µM (inactive)

Cc1ccc(S(=O)(=O)Nc2c(C(=O)O)[nH]c3ccccc23)cc1C
AC50 [7]: 10.8 µM (active)

Cc1nn(Cc2ccccc2Cl)c(C)c1NC(=O)c1noc2c1CCCCC2
IC50 [1]: 13.8 µM (active)

COc1ccc(C(NC(C)=O)c2cc(Cl)c3cccnc3c2O)cc1OC (configuration not stated)
AC50 [2]: 3.45 µM (active) | AC50 (INS1): 2.3 µM (active) | AC50 [3]: 3.12 µM (active) | EC50 [10]: 3.99 µM (active) | EC50 (Streptococcus): 3.67 µM (active) | AC50 [4]: 2.98 µM (active) | EC50 [11]: 0.941 µM (active) | EC50 [12]: 1.01 µM (active)

Cc1cc(C)cc(NS(=O)(=O)c2cnc(Cl)c(Cl)c2)c1
IC50 [1]: 16.6 µM (active)

CCn1c(N2CCN(S(=O)(=O)c3ccc(Cl)cc3)CC2)nc2ccccc21
AC50 [2]: 9.14 µM (active) | AC50 [3]: 58.3 µM (active) | AC50 [4]: 9.17 µM (active) | EC50 [11]: 1.55 µM (active) | EC50 [12]: > 60 µM (not active)

CC(NC(=O)c1ccccc1)C(=O)N/N=C/c1ccc(O)cc1 (configuration not stated)
AC50 [7]: 2.14 µM (active)

COc1cc(/C=C/C(=O)O)ccc1C(=O)O/C=C/c1ccccc1
GI50 (SN12K1): > 100 µM (inactive) | GI50 (P388): 25.6 µM (inactive) | GI50 (P388/ADR): 14.1 µM (inactive)

CC(C)=CCc1c(C)cc2cc3c(c(O)c2c1O)C(=O)C=C(O)C3(CC=C(C)C)C/C=C(\C)CO (configuration not stated)
GI50 (SN12K1): 35.2 µM (inactive) | GI50 (P388): 23.5 µM (inactive) | GI50 (P388/ADR): 20.1 µM (inactive)

COC(=O)c1cccc(NC(=O)c2ccc(S(=O)(=O)N3CCN(C)CC3)cc2)c1
IC50 [1]: 14.5 µM (active)

C=CC[n+]1c(C)csc1Nc1cccc(Br)c1
AC50 [7]: 7.54 µM (active)

Cc1ccc(S(=O)(=O)NNC(=O)c2ccc3ccccc3n2)cc1
AC50 [7]: 7 µM (active)

Cc1c(N)nc([C@H](CC(N)=O)NC[C@H](N)C(N)=O)nc1C(=O)N[C@H](C(=O)N[C@H](C)[C@@H](O)[C@H](C)C(=O)N[C@H](C(=O)NCCc1nc(-c2nc(C(=O)NCCC[S+](C)C)cs2)cs1)[C@@H](C)O)C(OC1OC(CO)C(O)C(O)C1OC1OC(CO)C(O)C(OC(N)=O)C1O)c1c[nH]cn1 (some centres not stated)
GI50 (SN12K1): 0.19 µM (active) | GI50 (P388): 2.11 µM (inactive) | GI50 (P388/ADR): 3.49 µM (inactive)

FC(F)(F)C1=NC(=NNc2nnc(-c3ccccc3)c(-c3ccccc3)n2)N=C(C(F)(F)F)C1
GI50 (SN12K1): 10.1 µM (inactive) | GI50 (P388): 0.891 µM (active) | GI50 (P388/ADR): 11.1 µM (inactive)

COc1ccc(-n2nnnc2CNC(=O)c2ccc3ccccc3c2)cc1
IC50 [1]: 14.5 µM (active)

c1ccc(-c2nc3nonc3nc2-c2ccccc2)cc1
AC50 (INS1): 1.15 µM (active) | CC50 [13]: 17.8 µM (active)

C[C@H](CN1CC(=O)NC(=O)C1)N1CC(=O)NC(=O)C1
GI50 (SN12K1): 36.8 µM (inactive) | GI50 (P388): 0.319 µM (active) | GI50 (P388/ADR): 13.9 µM (inactive)

COc1ccc2c(c1)CCCc1cn[nH]c1-2
GI50 (SN12K1): > 100 µM (inactive) | GI50 (P388): > 100 µM (inactive) | GI50 (P388/ADR): > 100 µM (inactive)
